Reference: patent US20250074910A1, “MENIN INHIBITOR AND USE THEREOF” (HITGEN INC., priority 2021, published 2025)

What was measured:
MV4-11 = experiment: Cell proliferation inhibition (CellTiter-Glo), MV4-11; assay type: cell-based; settings: Homo sapiens, MV4-11, 72 h, MV4-11 cells
How it was run: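 Leukemia cells were seeded at 5,000-20,000 cells/well and exposed to test compound at final concentrations from 1 nM to 10 μM. After 72-168 h at 37° C and 5% CO2, viability was measured by CellTiter-Glo luminescence following 10 min at room temperature, and IC50 values were obtained from fitted curves.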

[1] = Stability in human liver microsomes; assay type: in vitro ADME; settings: human, liver microsomes, pH 7.4, Human; 0.5 mg/mL microsomal protein, 1.00 μM compound, NADPH; read-out: Half life T1/2, human liver microsomes
How it was run: (§1)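 Compound at 1.00 μM incubated at 37° C with 0.5 mg/mL liver microsomal protein and 2.00 mM NADPH in 100 mM phosphate buffer pH 7.4, sampled 0–60 min with acetonitrile quench. Parent remaining by LC-MS/MS; T½ from ln-remaining slope, CLint scaled by microsomal concentration and conversion factor.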

[2] = Stability in dog liver microsomes; assay type: in vitro ADME; settings: dog, liver microsomes, pH 7.4, Dog; 0.5 mg/mL microsomal protein, 1.00 μM compound, NADPH; read-out: Half life T1/2, dog liver microsomes
How it was run: as §1

[3] = molecular target: Menin/MLL-4-43 peptide interaction (Homo sapiens (Human), UniProt O00255); experiment: Menin-MLL interaction inhibitory activity assay (fluorescence polarization competition); assay type: binding; settings: FITC-MLL4-43-peptide, Menin recombinant protein
How it was run: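 Menin (8 nM solution) was preincubated 15 min with compound, then FITC-MLL4-43 peptide (10 nM solution) was added and shaken for 60 min at 25 °C. The buffer was 50 mM Tris pH 7.5, 50 mM NaCl, 1 mM DTT. IC50 was derived from fluorescence polarization read at 485/520 nm.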

Sequence of Menin/MLL-4-43 peptide interaction (O00255 whole entry, species assumed): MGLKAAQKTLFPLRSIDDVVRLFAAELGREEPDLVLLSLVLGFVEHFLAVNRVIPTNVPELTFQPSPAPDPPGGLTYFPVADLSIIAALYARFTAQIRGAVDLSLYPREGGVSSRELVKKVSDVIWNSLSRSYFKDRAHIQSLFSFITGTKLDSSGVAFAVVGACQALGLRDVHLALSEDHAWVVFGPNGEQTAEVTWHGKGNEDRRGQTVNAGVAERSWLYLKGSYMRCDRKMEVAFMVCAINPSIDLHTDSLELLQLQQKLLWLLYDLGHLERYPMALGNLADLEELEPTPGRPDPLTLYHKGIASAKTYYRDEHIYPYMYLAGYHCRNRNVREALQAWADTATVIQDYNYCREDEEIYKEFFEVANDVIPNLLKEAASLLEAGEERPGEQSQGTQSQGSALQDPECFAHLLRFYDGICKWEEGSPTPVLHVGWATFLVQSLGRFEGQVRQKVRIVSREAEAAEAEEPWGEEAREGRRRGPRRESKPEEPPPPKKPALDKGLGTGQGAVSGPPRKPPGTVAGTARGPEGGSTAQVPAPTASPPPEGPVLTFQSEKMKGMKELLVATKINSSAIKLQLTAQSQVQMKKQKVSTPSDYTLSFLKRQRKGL

SMILES | GI50 (MV4-11) | half-life at 1 μM [1] | half-life at 1 μM [2] | IC50 [3]
CC(C)N(C(=O)c1cc(F)ccc1Oc1nncnc1N1CC2(CCN(CC3CC4CCC3CC43CCC(=O)N3)CC2)C1)C(C)C (single isomer, unassigned) [Example 15-1a] | 56.6 nM | 0.614 h | > 2 h | 34.7 nM
COCC1(COC)C[C@]2(CC[C@@H](CN3CCC4(CC3)CN(c3ncnnc3Oc3ccc(F)cc3C(=O)N(C(C)C)C(C)C)C4)CC2)NC1=O [Example 20] | 14.2 nM | 1.25 h | > 2 h | 6 nM
COC[C@@H]1C[C@]2(CC[C@@H](CN3CCC4(CC3)CN(c3ncnnc3Oc3ccc(F)cc3C(=O)N(C(C)C)C(C)C)C4)CC2)NC1=O [Example 38-2] | 13.1 nM | 1.04 h | 1.64 h | 2.8 nM

The remaining molecules from weak to strong by GI50 (MV4-11), led by results:

GI50 (MV4-11) | half-life at 1 μM [1] | half-life at 1 μM [2] | IC50 [3] | SMILES
53.8 nM | 1.47 h | > 2 h | 16.3 nM | COC[C@H]1C[C@]2(CC[C@@H](CN3CCC4(CC3)CN(c3ncnnc3Oc3ccc(F)cc3C(=O)N(C(C)C)C(C)C)C4)CC2)NC1=O [Example 38-1]
13.8 nM | 0.522 h | > 2 h | 5 nM | CCN(C(=O)c1cc(F)ccc1Oc1cncnc1N1CC2(CCN(C[C@H]3CC[C@]4(CC3)CC(COC)(COC)C(=O)N4)CC2)C1)C(C)C [Example 17]
